Reference: patent publication US20060246099A1 (L'OREAL, priority 2005, published 2006)

Experiments:
[1] = in vivo; cited from earlier work
[2] = test system: human striated muscle cells innervated with explants of rat embryonic rachidian ganglia and spinal cord; settings: validation of the model; cited from earlier work
[3] = test system: type L calcium channels, verapamil site; experiment: Binding to type L calcium channels, [3H](-)-D888 displacement; set-up: species or system rat; settings: similar test, concentration of 50 μM
Procedure: The studies are performed using rat cerebral cortex homogenates (isolated membranes containing at their surface type L calcium channels) according to the method described by Reynolds I. J. et al., 1986, J. Pharmacol. Exp. Ther., 237, p. 731.
The experimental conditions are as follows:
D888, which is [^3H] (−)-demethoxyverapamil, serves as a radiolabelled specific ligand, and D600, which is (±)-methoxyverapamil hydrochloride, serves as a reference molecule.
The specific binding of a ligand (labelled D888) to the receptors (type L calcium channels, verapamil site) is defined as being the difference between the total binding and the non-specific binding determined in the presence of an excess of cold (non-radioactive) ligand. The results are expressed as a percentage of inhibition of the specific binding of the control in the presence of the test compound.

[4] = test system: human striated muscle cells innervated with explants of rat embryonic rachidian ganglia and spinal cord; experiment: Nerve-muscle coculture test (muscle fibre contractions); format: cell-based; settings: 60 seconds incubation
Procedure: The compounds of Examples 1 and 2 were tested on a model of nerve-muscle coculture, which makes it possible to recreate a motor arc by innervating human striated muscle cells with explants of rat embryonic rachidian ganglia and spinal cord.
Human muscle cells, obtained from samples of striated muscle from healthy donors, are inoculated into wells of cross section 1.8 cm^2 (24-well culture dishes). After culturing for ten days, these cells form a monolayer and fuse. At this stage, explants of embryonic spinal cord from a 13-day-old rat, containing the rachidian ganglia, are placed on the culture.
The growth of the neurites is visible beyond the spinal cord explant after one day of culture. The first contractions of the muscle fibres are observed after five to six days of coculture, and after three weeks all the muscle fibres in the region of the explants contract.
The cocultures are used after 21 days, when the muscle fibres are striated and contain mature differentiated neuromuscular junctions.
A muscle fibre showing regular contractions (at least 60 contractions per minute) is then selected from three different culture wells and the number of contractions is counted over 30 seconds. […] At the end of incubation, the number of contractions is again counted over 30 seconds. […]

Row | Compound | anti-wrinkle activity [1] | inhibition of muscle fibre contractions [2] | inhibition of the specific binding of the control to the calcium channels [3] | % inhibition of contractions ([4]; 10 μM) | % inhibition of contractions ([4]; 100 μM)
1 | CN1C(=O)CN=C(c2ccccc2)c2cc(Cl)ccc21 [diazepam] | anti-wrinkle activity has been demonstrated in vivo | inhibited muscle fibre contractions | – | – | –
2 | 1-(2-phenylethyl)-4-(3-phenylpropyl)-piperazine [Compound 2] | – | – | 50% | 50% | 100%
